One compound from patent publication US11446352B2, “Compositions and methods for inhibiting tumor-induced immune suppression” (priority 2017, dated 2022) can be followed below.

One may read the IC50 as the concentration that inhibits the measured activity by half. A low value points to higher potency.

For data set [1], the system named is Hs587T and MDA-MB-453 cell lines. The experiment in a line: autophagy, mitochondria content and mitophagy in treated cancer cells. The data set is classed as cell-based, human. The text has this:
The first bar indicates 100% folding activity of RRL without inhibitor. PR22 indicates the antibody without PR but with RRL and EnnA. PR represents the antibody (PR22) with PR but without RRL. All other samples have PR22, PR, and RRL without (first bar) or with increased concentration of EnnA. FIGS. 1C-1E are line graphs of cell survival versus EnnA concentration (μM) in breast cancer cell lines Hs578T (FIG. 1C), […] (FIG. 1D) and MDA-MB231 (FIG. 1E) upon treatment with EnnA for 48 and 72 h. […] PR alone (PR), antibody (PR22)+RRL, PR+RRL without inhibitor (RRL), PR+RRL with 1 μM 17-AAG (17AAG) PR+RRL with 10 μM BEAU or EnnA. FIGS. 1G-1I are autoradiographs of Western blots of cytosols from various cell lines treated with 17-AAG (1 μM) or EnnA (3 μM) with antibodies against the specified proteins. FIG. 1J is an autoradiograph showing EnnA causes autophagy in Hs578T and MDA-MB453 cell lines. FIGS. 1K-1N are electron microscopy micrographs showing autophagosomes and reduced mitochondria content in Hs578T cells treated with DMSO or EnnA. FIGS. 1O-1P are fluorescence micrographs showing EnnA causing reduced mitochondria content in Hs578T cells. FIGS. 1Q-1BB are fluorescence micrographs showing mitophagy in Hsp578T cells treated with EnnA as indicated by colocalization of the mitochondria marker Cox4 and the autophagy marker LC3BII.

Another data set relates to 4T1 cells. Briefly: MTT cell proliferation assay. The following applies: 4T1, in vitro, 72 h. Format: cell-based, murine. The text has this:
(§1) FIGS. 2I-2K show FACS analysis of Hsp90β expression on the cell surface of E0771 cells treated with DMSO or EnnA. FIGS. 2L-2N show FACS analysis of the ratio of Hsp90α to Hsp90β expression on the cell surface of E0771 cells treated with DMSO or EnnA. FIGS. 2O-2Q show FACS analysis of Hsp90α expression on the cell surface of E0771 cells treated with DMSO or EnnA. FIG. 2R is a bar graph showing expression of Hsp90β on the surface of AT3 cells treated with DMSO or EnnA. FIG. 2S is a bar graph showing expression of Hsp90α on the surface of AT3 cells treated with DMSO or EnnA. FIGS. 2T-2X show FACS analysis of Hsp90β expression on the surface of E0771 tumor cells treated with mIgG, DMSO, or EnnA.
(§2) The mechanism of action of EnnA appears to be different from that of 17-AAG. […] Further studies studies using murine breast cancer cells lines have shown that EnnA kills E0771, AT3, EMT6 and 4T1 in vitro (FIG. 2A-2D).
On the technique in general: Tetrazolium dyes change colour on reduction, which living cells bring about.

The next data set concerns AT3 cells. The experiment in a line: MTT cell proliferation assay. Format: cell-based, murine. The following applies: AT3, in vitro, 72 h.
Text: as §1, §2

A further data set relates to E0771 cells. Briefly: MTT cell proliferation assay. The following applies: E0771, in vitro, 72 h. The data set is classed as cell-based, murine.
Text: as §1, §2

The subject of the next data set is EMT6 cells. The experiment in a line: MTT cell proliferation assay. Format: cell-based, murine. Particulars: EMT6, in vitro, 72 h.
Text: as §1, §2

In another data set the test system is IDO. Briefly: HPLC-based assay of tryptophan and kynurenine in culture media. The data set is classed as cell-based. The following applies: HEK 293 cells expressing IDO-GFP. On the procedure:
FIG. 3A-3B are autoradiographs of a Western blot showing expression of the indicated proteins in control (left lane) and 0.5 μM EnnA-treated (right lane) E0771 (FIG. 3A) and AT3 (FIG. 3B) cells. FIG. 3C is a graph showing FACS analysis of PD-L1 level in AT3 cells. FIGS. 3D-3K are graphs showing qPCR analysis of the mRNA level of cytokines TNFa (FIG. 3D), IL-6 (FIG. 3E), TGFb1 (FIG. 3F) and IL-10 (FIG. 3G), the chemokines S100a9 (FIG. 3J) and CCL3 (FIG. 3K), as well as PDL1 (FIG. 3H) and IDO (FIG. 3I). FIGS. 3L-3Q are micrographs of HEK293 cells transiently transfected with GFP-IDO fusion protein expressing or GFP alone plasmids for 24 h. Cells were then treated with 5 μM EnnA for 6 h and analyzed for green fluorescence and bright light. FIG. 3R is a line graph of μg/ml of tryptophan and its IDO-mediated product kynurenine using the previously reported HPLC-based assay.
Western blot analysis (FIG. 3A-3B) confirmed that EnnA destabilizes pAKT and reduces the protein expression of Hsp40 in E0771 and AT3. […] It also reduces the mRNA level of the chemokines S100a9 and CCL3 (FIG. 3J-3K). Importantly, EnnA reduces the mRNA and protein levels of the key immunological checkpoint component PDL-1 (FIG. 3H). Similar results were obtained with EMT6 (not shown). […]

The subject of data set [2] is E0771 tumors. Briefly: E0771 syngeneic tumor model in C57BL/6 immunocompetent mice. Format: in vivo. The following applies: for anti-tumor activity (tumor volume): C57BL/6, 10 mg/kg every other day. On the procedure:
(§3) 50,000 E0771 cells were surgically implanted in mammary fad pad of 10 C57BL/6 immunocompetent mice and 10 immunocompromised nude mice. 12 days after surgery, B6 and nude mice were divided into two groups each. the EnnA group was injected with 10 mg/kg of EnnA every other day, and the control group received a mixture of 15% DMSO and 20% cremophor in PBS.
100,000 E0771 cells were surgically implanted in mammary fat pad of 20 mice. Ten days after surgery, mice were divided into two groups: the EnnA group was injected with 10 mg/kg of EnnA every other day, and the control group received a mixture of 15% DMSO and 20% cremophor in PBS.

For data set [3], the system named is E0771 tumors. Briefly: E0771 tumor model in immunocompromised nude mice. The data set is classed as in vivo. Particulars: 10 mg/kg every other day. The method, then:
as §3

Data set [4] concerns E0771 tumors. Briefly: E0771 tumor model: EnnA versus 17-AAG and combinations with CPA or anti-CD8. Format: in vivo, mice. On the procedure:
Groups of mice (n=10) were implanted with 50,000 E0771 cells. When tumors were about 150 mm3 in volume (10 days post-implantation), mice were injected every other day with DMSO, EnnA (10 mg/Kg) or 17-AAG (10 mg/Kg). Two extra groups were made. In one group, EnnA was combined with one dose (150 mg/Kg) of cyclophosphamide (CPA) on day 14. In the other EnnA was combined with anti-CD8 antibody (250 μg/mouse) injected on day 18 and 22.

Entries after “also recorded” stand apart in the source; their conditions may differ.

Consider `CC[C@H](C)[C@H]1C(=O)O[C@H](C(C)C)C(=O)N(C)[C@@H]([C@@H](C)CC)C(=O)O[C@H](C(C)C)C(=O)N(C)[C@@H]([C@@H](C)CC)C(=O)O[C@H](C(C)C)C(=O)N1C` [EnnA, Enniatin A], for which the “mitochondria content in cancer cells” value in data set [1] (Hs578T cells) is recorded as “reduces”. The mitophagy result in data set [1] (Hs578T cells, Cox4 / LC3BII colocalization) is listed as “induction of mitophagy”. For the same compound, the “mode of cell death (apoptosis / autophagy)” value in [1] (Hs587T and MDA-MB-453 cell lines) is recorded as “induces autophagy”. Moreover, the concentration for half-maximal inhibition (IC50) with 4T1 cells is roughly 2.5 µM; in the data set with AT3 cells it was 5 to 10 µM; in the data set on E0771 cells, 5 to 10 µM; with EMT6 cells, roughly 2.5 µM. In addition, in the data set with IDO, the “IDO enzymatic activity (tryptophan accumulation, kynurenine reduction in culture media)” value was “loss of IDO enzymatic activity”. Also, the “effect on bodyweight or activities of mice” value in the data set on E0771 tumors [2] (10 mg/kg every other day) is “No significant effect”. Moreover, the “anti-tumor activity (tumor volume)” value in the data set on E0771 tumors [2] (Example 3: 50,000 E0771 cells) was “powerful anti-tumor activity”; in the data set on E0771 tumors [2] (Example 4: 100,000 E0771 cells), “powerful anti-tumor activity”; with E0771 tumors [3], “no significant anti-tumor activity”. The “breast cancer metastasis to the lungs” value in the data set on E0771 tumors [4] (E0771 tumor bearing mice, H&E lung sections) is “prevents”. In addition, the tumor outcome in the data set with E0771 tumors [4] (EnnA 10 mg/Kg combined with one dose (150 mg/Kg) of cyclophosphamide (CPA) on day 14) is reported as “completely cured”. Also, in the data set with E0771 tumors [4] (EnnA combined with anti-CD8 antibody (250 μg/mouse) on day 18 and 22), the “tumor growth after CD8 T cell depletion” value was “restores an aggressive tumor growth; also recorded: rapid regrowth of tumors”. In addition, the “time mice remained tumor-free after the end of EnnA treatment” value with E0771 tumors [4] (EnnA/CPA-treated mice) is given as 2 months. The “anti-tumor efficacy compared with 17-AAG” value in the data set on E0771 tumors [4] (each 10 mg/Kg every other day) was “more efficacious than 17-AAG”.
